Data: patent US10316028B2, “Orexin receptor antagonists” (Heptares Therapeutics Limited, priority 2012, dated 2019)

target: T1, human Orexin-2 receptor (Homo sapiens, UniProt O43614); assay: 3H-EMPA radioligand binding assay; details: 3H-EMPA displacement, membranes of HEK293 cells transfected with human Orexin-2 receptor; KI by Cheng-Prussoff; read-out: OX2 pKi ave (converted)
T1 construct: expressed in transfected cells; host or cells: HEK293 cells (transient transfection, Genejuice); membranes
T1 sequence (O43614 1-444): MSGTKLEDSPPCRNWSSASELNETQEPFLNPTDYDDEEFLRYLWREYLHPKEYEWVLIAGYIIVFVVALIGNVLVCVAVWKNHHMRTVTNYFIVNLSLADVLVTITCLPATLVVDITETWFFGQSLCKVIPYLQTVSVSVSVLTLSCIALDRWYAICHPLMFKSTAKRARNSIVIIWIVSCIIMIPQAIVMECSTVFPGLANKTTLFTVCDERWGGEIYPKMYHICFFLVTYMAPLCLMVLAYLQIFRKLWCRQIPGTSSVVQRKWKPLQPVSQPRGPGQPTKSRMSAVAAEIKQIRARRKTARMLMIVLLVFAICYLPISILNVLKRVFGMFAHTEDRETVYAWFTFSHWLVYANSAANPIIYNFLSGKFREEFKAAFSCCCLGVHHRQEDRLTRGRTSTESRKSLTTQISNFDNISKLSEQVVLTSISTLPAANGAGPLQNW
Outline: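 Membranes from HEK293 cells transiently transfected with human orexin-2 receptor cDNA, assayed with [3H]EMPA. Bound ligand collected on PEI-treated GF/B filters and counted by scintillation; IC50 from inhibition curves, Ki by Cheng-Prusoff.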

Row | SMILES | Ki [nM]
1 | CCN1CCCC(N2C(=O)N(Cc3c(F)cccc3F)c3ccccc3S2(=O)=O)C1 (stereo not shown) [Example 133, 4-(2,6-Difluorobenzyl)-2-(1-ethylpiperidin-3-yl)-2H-1,2,4-benzothiadiazin-3(4H)-one 1,1-dioxide] | 661
2 | Cc1cc(CN2C(=O)N(Cc3ccc(Cl)cc3F)c3ccccc3S2(=O)=O)n(C)n1 [Example 134, 4-(4-Chloro-2-fluorobenzyl)-2-[(1,3-dimethyl-1H-pyrazol-5-yl)methyl]-2H-1,2,4-benzothiadiazin-3(4H)-one 1,1-dioxide] | 39.8
3 | COc1ccc(N2C(=O)N(Cc3c(F)cc(C)cc3Cl)c3ccccc3S2(=O)=O)cn1 [Example 135, 4-(2-Chloro-6-fluoro-4-methylbenzyl)-2-(6-methoxypyridin-3-yl)-2H-1,2,4-benzothiadiazin-3(4H)-one 1,1-dioxide] | 13.8
4 | COc1cc(F)c(CN2C(=O)N(c3ccc(OC)nc3)S(=O)(=O)c3ccccc32)c(F)c1 [Example 136, 4-(2,6-Difluoro-4-methoxybenzyl)-2-(6-methoxypyridin-3-yl)-2H-1,2,4-benzothiadiazin-3(4H)-one 1,1-dioxide] | 10.7
5 | COc1ncc(N2C(=O)N(Cc3c(F)cccc3Cl)c3ccccc3S2(=O)=O)cn1 [Example 137, 4-(2-Chloro-6-fluorobenzyl)-2-(2-methoxypyrimidin-5-yl)-2H-1,2,4-benzothiadiazin-3(4H)-one 1,1-dioxide] | 38
6 | COc1cc(F)c(CN2C(=O)N(c3cccc(OC)n3)S(=O)(=O)c3ccccc32)c(F)c1 [Example 138, 4-(2,6-Difluoro-4-methoxybenzyl)-2-(6-methoxypyridin-2-yl)-2H-1,2,4-benzothiadiazin-3(4H)-one 1,1-dioxide] | 1.45
7 | COc1cccc(N2C(=O)N(Cc3c(F)cc(F)cc3Cl)c3ccccc3S2(=O)=O)n1 [Example 139, 4-(2-Chloro-4,6-difluorobenzyl)-2-(6-methoxypyridin-2-yl)-2H-1,2,4-benzothiadiazin-3(4H)-one 1,1-dioxide] | 13.8
8 | COc1cc(F)c(CN2C(=O)N(c3ccnc(OC)c3)S(=O)(=O)c3ccccc32)c(F)c1 [Example 140, 4-(2,6-Difluoro-4-methoxybenzyl)-2-(2-methoxypyridin-4-yl)-2H-1,2,4-benzothiadiazin-3(4H)-one 1,1-dioxide] | 3.31
9 | COc1cc(N2C(=O)N(Cc3c(F)cc(F)cc3Cl)c3ccccc3S2(=O)=O)ccn1 [Example 141, 4-(2-Chloro-4,6-difluorobenzyl)-2-(2-methoxypyridin-4-yl)-2H-1,2,4-benzothiadiazin-3(4H)-one 1,1-dioxide] | 6.92
10 | Cc1ccc(N2C(=O)N(Cc3c(F)cccc3Cl)c3ccccc3S2(=O)=O)cn1 [Example 142, 4-(2-Chloro-6-fluorobenzyl)-2-(6-methylpyridin-3-yl)-2H-1,2,4-benzothiadiazin-3(4H)-one 1,1-dioxide] | 29.5
11 | COc1cc(N2C(=O)N(Cc3c(F)cccc3Cl)c3ccccc3S2(=O)=O)ccn1 [Example 143, 4-(2-Chloro-6-fluorobenzyl)-2-(2-methoxypyridin-4-yl)-2H-1,2,4-benzothiadiazin-3(4H)-one 1,1-dioxide] | 15.8
12 | COc1cccc(N2C(=O)N(Cc3c(F)cc(F)cc3F)c3ccccc3S2(=O)=O)n1 [Example 144, 2-(6-Methoxypyridin-2-yl)-4-(2,4,6-trifluorobenzyl)-2H-1,2,4-benzothiadiazin-3(4H)-one 1,1-dioxide] | 50.1
13 | COc1cc(F)c(CN2C(=O)N(c3cnc(OC)c(OC)c3)S(=O)(=O)c3ccccc32)c(F)c1 [Example 146, 4-(2,6-difluoro-4-methoxybenzyl)-2-(5,6-Dimethoxypyridin-3-yl)-2H-1,2,4-benzothiadiazin-3(4H)-one 1,1-dioxide] | 0.363
14 | COc1ccc(N2C(=O)N(Cc3c(F)cc(F)cc3F)c3ccccc3S2(=O)=O)nc1OC [Example 147, 2-(5,6-Dimethoxypyridin-2-yl)-4-(2,4,6-trifluorobenzyl)-2H-1,2,4-benzothiadiazin-3(4H)-one 1,1-dioxide] | 1.58
15 | COc1cc(N2C(=O)N(Cc3c(F)cc(F)cc3F)c3ccccc3S2(=O)=O)cc(OC)n1 [Example 148, 2-(2,6-Dimethoxypyridin-4-yl)-4-(2,4,6-trifluorobenzyl)-2H-1,2,4-benzothiadiazin-3(4H)-one 1,1-dioxide] | 1.38
16 | COc1cc(F)c(CN2C(=O)N(c3cc(OC)nc(OC)c3)S(=O)(=O)c3ccccc32)c(F)c1 [Example 149, 4-(2,6-Difluoro-4-methoxybenzyl)-2-(2,6-dimethoxypyridin-4-yl)-2H-1,2,4-benzothiadiazin-3(4H)-one 1,1-dioxide] | 0.138

Row | SMILES | Ki [nM]
17 | CCn1cc(N2C(=O)N(Cc3c(F)cccc3Cl)c3ccccc3S2(=O)=O)cn1 [Example 150, 4-(2-Chloro-6-fluorobenzyl)-2-(1-ethyl-1H-pyrazol-4-yl)-2H-1,2,4-benzothiadiazin-3(4H)-one 1,1-dioxide] | 17.4
18 | CSc1cncc(N2C(=O)N(Cc3c(F)cccc3Cl)c3ccccc3S2(=O)=O)c1 [Example 151, 4-(2-Chloro-6-fluorobenzyl)-2-[5-(methylsulfanyl)pyridin-3-yl]-2H-1,2,4-benzothiadiazin-3(4H)-one 1,1-dioxide] | 2
19 | CSc1cncc(N2C(=O)N(Cc3c(F)cc(F)cc3F)c3ccccc3S2(=O)=O)c1 [Example 152, 2-[5-(Methylsulfanyl)pyridin-3-yl]-4-(2,4,6-trifluorobenzyl)-2H-1,2,4-benzothiadiazin-3(4H)-one 1,1-dioxide] | 5.89
20 | COc1cc(F)c(CN2C(=O)N(c3ccc(OC)c(OC)n3)S(=O)(=O)c3ccccc32)c(F)c1 [Example 153, 4-(2,6-Difluoro-4-methoxybenzyl)-2-(5,6-dimethoxypyridin-2-yl)-2H-1,2,4-benzothiadiazin-3(4H)-one 1,1-dioxide] | 0.224
21 | COc1cc(F)c(CN2C(=O)N(c3ccc(OC)nc3)S(=O)(=O)c3ccccc32)c(Cl)c1 [Example 154, 4-(2-Chloro-6-fluoro-4-methoxybenzyl)-2-(6-methoxypyridin-3-yl)-2H-1,2,4-benzothiadiazin-3(4H)-one 1,1-dioxide] | 3.02
22 | COc1cc(N2C(=O)N(Cc3c(F)cc(F)cc3Cl)c3ccccc3S2(=O)=O)cnc1OC [Example 155, 4-(2-Chloro-4,6-difluorobenzyl)-2-(5,6-dimethoxypyridin-3-yl)-2H-1,2,4-benzothiadiazin-3(4H)-one 1,1-dioxide] | 1.74
23 | O=C1N(Cc2c(F)cc(F)cc2F)c2ccccc2S(=O)(=O)N1Cc1cc(=O)[nH]c2ccccc12 [Example 156, 4-(2,4,6-Trifluorobenzyl)-2-[(2-oxo-1,2-dihydroquinolin-4-yl)methyl]-2H-1,2,4-benzothiadiazin-3(4H)-one 1,1-dioxide] | 11.2
24 | COc1cc(N2C(=O)N(Cc3c(F)cc(F)cc3Cl)c3ccccc3S2(=O)=O)cc(OC)n1 [Example 157, 4-(2-Chloro-4,6-difluorobenzyl)-2-(2,6-dimethoxypyridin-4-yl)-2H-1,2,4-benzothiadiazin-3(4H)-one 1,1-dioxide] | 0.575
25 | CN(C)c1cccc(N2C(=O)N(Cc3c(F)cc(F)cc3F)c3ccccc3S2(=O)=O)n1 [Example 158, 2-[6-(Dimethylamino)pyridin-2-yl]-4-(2,4,6-trifluorobenzyl)-2H-1,2,4-benzothiadiazin-3(4H)-one 1,1-dioxide] | 3.39
26 | CN(C)c1cc(N2C(=O)N(Cc3c(F)cc(F)cc3F)c3ccccc3S2(=O)=O)ccn1 [Example 159, 2-[2-(Dimethylamino)pyridin-4-yl]-4-(2,4,6-trifluorobenzyl)-2H-1,2,4-benzothiadiazin-3(4H)-one 1,1-dioxide] | 3.09
27 | CSc1ccc(N2C(=O)N(Cc3c(F)cc(F)cc3F)c3ccccc3S2(=O)=O)cn1 [Example 160, 2-[6-(Methylsulfanyl)pyridin-3-yl]-4-(2,4,6-trifluorobenzyl)-2H-1,2,4-benzothiadiazin-3(4H)-one 1,1-dioxide] | 17.4
28 | COc1ccc(N2C(=O)N(Cc3c(F)cc(F)cc3Cl)c3ccccc3S2(=O)=O)nc1OC [Example 161, 4-(2-Chloro-4,6-difluorobenzyl)-2-(5,6-dimethoxypyridin-2-yl)-2H-1,2,4-benzothiadiazin-3(4H)-one 1,1-dioxide] | 1.26
29 | COc1cc(N2C(=O)N(Cc3ncc(F)cc3C)c3ccccc3S2(=O)=O)cc(OC)n1 [Example 162, 2-(2,6-Dimethoxypyridin-4-yl)-4-[(5-fluoro-3-methylpyridin-2-yl)methyl]-2H-1,2,4-benzothiadiazin-3(4H)-one 1,1-dioxide] | 18.6
30 | COc1cc(F)c(CN2C(=O)N(c3cc(OC)nc(OC)c3)S(=O)(=O)c3cccnc32)c(F)c1 [Example 163, 4-(2,6-Difluoro-4-methoxybenzyl)-2-(2,6-dimethoxypyridin-4-yl)-2H-pyrido[2,3-e][1,2,4]thiadiazin-3(4H)-one 1,1-dioxide] | 1.38
31 | COc1cc(F)c(CN2C(=O)N(c3ccc(OC)c(OC)n3)S(=O)(=O)c3cccnc32)c(F)c1 [Example 164, 4-(2,6-Difluoro-4-methoxybenzyl)-2-(5,6-dimethoxypyridin-2-yl)-2H-pyrido[2,3-e][1,2,4]thiadiazin-3(4H)-one 1,1-dioxide] | 0.661
